Assay results taken from patent US20030165575A1, “Methods and compositions for treatment and diagnosis of alzheimer disease and other disorders” (Research Foundation for Mental Hygeine, Inc., priority 1994, published 2003).

How the values were obtained:
[1] = molecular target: T1, PP-2B (Bos taurus, UniProt P48452); experiment: Effect of effectors on dephosphorylation of AD P-tau by PP-2B (immunoblot); format: biochemical, bovine; details: for Activity of PP-2B towards AD P-tau with divalent cation in the presence of Ca2+ and calmodulin: 1.0 mM CaCl2, 1.0 μM calmodulin plus 1.0 mM NiCl2, 1.0 mM MnCl2 or 10 mM MgCl2; for Activity of PP-2B towards AD P-tau with divalent cation in the presence of Ca2+ and calmodulin / Magnitude of dephosphorylation of AD P-tau by PP-2B with the cation alone compared to inclusion of Ca2+ and calmodulin: Tau-1 immunoblot; for Magnitude of dephosphorylation of AD P-tau by PP-2B with the cation alone compared to inclusion of Ca2+ and calmodulin: 1.0 mM MnCl2 or 1.0 mM NiCl2 alone; for Concentration of metal ion for maximal dephosphorylation of AD P-tau by PP-2B / Concentration of metal ion that activated the dephosphorylation of AD P-tau by PP-2B: in the presence of 1.0 mM Ca2+ and 1.0 μM calmodulin
T1 construct: PP-2B (holoezyme) was purified from bovine brain according to the method of Sharma et al; from tissue; host or cells: bovine brain
Description: Rabbit skeletal muscle PP-1 was purchased from Upstate Bioteehnology Inc., Lake Placid, N.Y. Rat brain PP-2A1 and PP-2A2 were kindly provided by Dr. S. Jaspers of University of Massachusetts. […] Phosphorylase and calmodulin were purchased from Sigma, St. Louis, Mo. […] Alkaline phosphatase-conjugated goat anti-mouse and anti-rabbit IgG were purchased from Bio-Rad, Hercules, Calif.
Unless otherwise stated, dephosphorylation of AD P-tau was carried out at 30° C. in 50 mM Tris, pH 7.0, 10 mM β-mecaptoethanol, 0.1 mg/ml BSA, 50 μg/ml AD P-tau and PP-1 PP-2A or PP-2B. The reaction was started by addition of enzyme and stopped by addition of 5 volumes of cold acetone. The precipitated protein samples were dissolved in sodium dodecyl sulfate-polyacrylamide gel electrophoresis (SDS-PAGE) sample buffer and heated at 95° C. for 4 min, followed by 10% SDS-PAGE. […] Antiserum 92e is a phosphorylation-independent antibody which recognizes both AD P-tau and normal tau.

[2] = molecular target: T2, PP-2A1 (Rattus norvegicus, UniProt P63331); experiment: Effect of Mn2+, Mg2+ and polylysine on dephosphorylation of AD P-tau by PP-2A1; format: biochemical; details: 2.0 mM MnCl2, 2.0 mM MgCl2 or 10 μM polylysine versus 1.0 mM EDTA; Tau-1 immunoblot
T2 construct: PP-2A1 and PP-2A2 were purified from rat brain basically as described by Cohen et al; tissue gift of Dr. S. Jaspers, University of Massachusetts; host or cells: rat brain
Text: (§1) Phosphorylase, calmodulin, and poly-L-lysine (molecular weight 4,000-15,000) were purchased from Sigma, St. Louis, Mo. […] L. 1. Binder, University of Alabama, Birmingham, Ala.; A. Van de Voorde, Innogenetics, Industriepark Zwijinaarde, Belgium; and S. Greenberg, Burke Medical Research Institute, White Plains, N.Y., respectively. SMI33, SMI31, SMI34, goat anti-mouse IgG and peroxidase-anti-peroxidase complex were purchased from Sternberger Monoclonals Inc., Baltimore, Md. Alkaline phosphatase-conjugated goat anti-mouse and anti-rabbit IgG were purchased from Bio-Rad, Hercules, Calif.
(§2) In some experiments, Mn^2+ in the reaction mixture was replaced by other effectors (see Figure legends). In the reaction mixture for PP-2B, MnCl2 was substituted with-1.0 mM NiCl2, 1.0 mM CaCl2 and 1.0 μM calmodulin. The reaction was started by the addition of enzymes. After appropriate incubation times (see Figure legends), reactions were stopped by the addition of 5 volumes of cold acetone to precipitate proteins. Dephosphorylation was monitored by immunoblotting with the phosphorylation-dependent antibodies described below.
(§3) Res. Commun. […] Antibody AT8 was used at a concentration of 2.0 μg/ml. […] The intensity of immunostaining of-some blots with Tau-1 was scanned by using a Shimadzu dual-wavelength flying-spot scanner.

[3] = tested on: PP-1; experiment: PP-1 activity with [32P]phosphorylase kinase as substrate; format: biochemical, rabbit; details: 1.0 mM Mn2+ or 10 mM Mg2+
Description: (§4) For PP-2B and PP-2C activities, MnCl2 was substituted by 1.0 mM CaCl2 and 10 μM calmodulin, and 10 mM MgCl2, respectively.

[4] = tested on: PP-1; experiment: Effect of effectors on dephosphorylation of AD P-tau by PP-1 (immunoblot); format: biochemical, rabbit; details: for Effect on dephosphorylation of AD P-tau by PP-1: 1.0 mM Mn2+ or 10 mM Mg2+ versus 1.0 mM EDTA, PHF-1 immunoblot (Ser-396)
Description: Unless otherwise stated, dephosphorylation of AD P-tau was carried out at 30° C. in 50 mM Tris, pH 7.0, 10 mM β-mecaptoethanol, 0.1 mg/ml BSA, 50 μg/ml AD P-tau and PP-1, PP-2B or PP-2C. In some experiments, several effectors were added in the reaction mixture (see Results section). The reaction was started by addition of the enzyme. After appropriate incubation times (see Figure legends), reactions were stopped by addition of 5 volumes of cold acetone to precipitate proteins. The precipitated protein samples were dissolved in SDS-PAGE sample buffer (60 mM Tris-HCl, […], 3% SDS, 5% β-mercaptoethanol, 10% glycerol and 0.05% bromophenol blue) and heated at 95° C. for 4 min, followed by 10% SDS-PAGE.

[5] = molecular target: T3, PP-2A2 (Rattus norvegicus, UniProt P63331); experiment: Effect of Mn2+, Mg2+ and polylysine on dephosphorylation of AD P-tau by PP-2A2; format: biochemical; parameters: PP-2A1 and PP-2A2 were purified from rat brain basically as described by Cohen et al; tissue gift of Dr. S. Jaspers, University of Massachusetts; host or cells: rat brain; details: 2.0 mM MnCl2, 2.0 mM MgCl2 or 10 μM polylysine versus 1.0 mM EDTA; Tau-1 immunoblot
Text: as §1, §2, §3

[6] = tested on: PP-2C; experiment: PP-2C activity with [32P]phosphorylase kinase as substrate; format: biochemical, bovine; details: no activity detected in the absence of Mg2+ or Mn2+
Description: as §4

[7] = tested on: PP-2A; experiment: Effect of effectors on dephosphorylation of AD P-tau by PP-2A (immunoblot); format: biochemical, rat
Text: as §1, §2, §3

[8] = molecular target: T3, PP-2A2; details: data not shown
[9] = molecular target: T2, PP-2A1; experiment: PP-2A1 activity with [32P]phosphorylase as substrate; format: biochemical; details: data not shown

T2 sequence (P63331 whole entry): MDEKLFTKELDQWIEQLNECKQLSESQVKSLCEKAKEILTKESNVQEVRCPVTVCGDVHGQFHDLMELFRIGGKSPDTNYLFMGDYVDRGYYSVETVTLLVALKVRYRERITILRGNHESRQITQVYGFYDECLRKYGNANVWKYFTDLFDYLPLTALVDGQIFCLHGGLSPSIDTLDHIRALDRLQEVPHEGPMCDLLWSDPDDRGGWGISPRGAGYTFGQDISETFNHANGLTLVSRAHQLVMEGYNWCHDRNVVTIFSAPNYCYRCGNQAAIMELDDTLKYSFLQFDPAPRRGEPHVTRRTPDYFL
T2 sequence (Q5XI34 1-589 partner): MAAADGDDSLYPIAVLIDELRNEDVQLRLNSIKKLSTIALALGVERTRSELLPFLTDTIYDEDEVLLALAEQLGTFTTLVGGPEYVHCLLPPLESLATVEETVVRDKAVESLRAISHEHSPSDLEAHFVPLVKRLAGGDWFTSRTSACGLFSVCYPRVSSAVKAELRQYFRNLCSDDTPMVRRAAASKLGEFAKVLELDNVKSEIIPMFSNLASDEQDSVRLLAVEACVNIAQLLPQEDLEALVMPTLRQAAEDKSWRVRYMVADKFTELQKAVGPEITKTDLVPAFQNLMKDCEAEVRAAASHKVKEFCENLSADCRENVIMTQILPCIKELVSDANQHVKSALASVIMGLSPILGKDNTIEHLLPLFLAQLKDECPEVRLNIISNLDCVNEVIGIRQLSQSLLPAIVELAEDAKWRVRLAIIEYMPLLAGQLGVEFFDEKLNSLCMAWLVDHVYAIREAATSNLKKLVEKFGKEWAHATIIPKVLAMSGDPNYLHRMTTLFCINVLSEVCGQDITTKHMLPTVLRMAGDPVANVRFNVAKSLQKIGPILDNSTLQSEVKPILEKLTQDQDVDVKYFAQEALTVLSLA
T2 sequence (P36876 whole entry partner): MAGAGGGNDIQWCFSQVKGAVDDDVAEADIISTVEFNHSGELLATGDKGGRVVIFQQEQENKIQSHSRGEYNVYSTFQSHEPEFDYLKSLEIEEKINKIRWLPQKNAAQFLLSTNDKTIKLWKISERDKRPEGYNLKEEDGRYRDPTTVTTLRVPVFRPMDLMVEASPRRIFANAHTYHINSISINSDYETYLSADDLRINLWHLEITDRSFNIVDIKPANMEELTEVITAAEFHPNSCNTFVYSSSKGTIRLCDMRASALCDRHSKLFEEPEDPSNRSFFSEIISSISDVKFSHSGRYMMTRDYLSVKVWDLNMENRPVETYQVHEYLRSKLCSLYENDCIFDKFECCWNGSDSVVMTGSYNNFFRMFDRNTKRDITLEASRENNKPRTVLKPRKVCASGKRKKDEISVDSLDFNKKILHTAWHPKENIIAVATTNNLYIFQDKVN
T3 sequence (P63331 whole entry): as the sequence (P63331 whole entry) above
T3 sequence (Q5XI34 1-589 partner): as the sequence (Q5XI34 1-589 partner) above

Row | Compound | Effect on activity of PP-2A1 towards AD P-tau [2] | Effect on PP-1 activity with [32P]phosphorylase kinase as substrate [3] | Activity of PP-2B towards AD P-tau with divalent cation in the presence of Ca2+ and calmodulin [1] | Effect on dephosphorylation of AD P-tau by PP-1 [4] | Effect on activity of PP-2A2 towards AD P-tau [5] | Metal dependence of PP-2C activity with [32P]phosphorylase kinase as substrate [6] | Effect on PP-2A1 activity with [32P]phosphorylase as substrate [9] | Effect on AD P-tau dephosphorylation by PP-2B [1] | Magnitude of dephosphorylation of AD P-tau by PP-2B with the cation alone compared to inclusion of Ca2+ and calmodulin [1] | Concentration of metal ion for maximal dephosphorylation of AD P-tau by PP-2B [1] [µM] | Concentration of metal ion that activated the dephosphorylation of AD P-tau by PP-2B [1] [FM] | further results
1 | [Ca+2] [Ca^2+] |  |  |  |  |  |  |  |  |  |  |  | Dephosphorylation of tau by PP-2B in the presence of Ca2+ and calmodulin alone ([1]; 1.0 mM CaCl2 and 1.0 μM calmodulin, no other cation): no apparent dephosphorylation
2 | [Mg+2] [Mg^2+, reference compound] | no detectable effect | inhibited | lower | inhibited | no detectable effect | dependent |  |  |  |  |  | 
3 | [Mn+2] [Mn^2+, manganese] | markedly stimulated | activated | lower | strongly activated | markedly stimulated | dependent | almost no effect | ↑ ↑ | lower | 100 | 10 | Effect on AD P-tau dephosphorylation by PP-2A [7]: ↑ ↑; Effect on PP-2A2 activity with [32P]phosphorylase as substrate [8]: stimulated PP-2A2 much more strongly than polylysine did; Effect on AD P-tau dephosphorylation by PP-1 [4]: ↑ ↑; Concentration at which activation of AD P-tau dephosphorylation by PP-1 reached maximum ([4]; data not shown): about 100 μM; Concentration at which activation of AD P-tau dephosphorylation by PP-1 was observed ([4]; data not shown): 10 µM
4 | [Ni+2] [Ni^2+] |  |  | highest activity |  |  |  |  | ↑ ↑ | lower | 100 | 10 | 
5 | C=C1[C@@H](O)[C@@H]2O[C@]3(CC[C@H](/C=C/[C@@H](C)[C@@H]4CC(C)=C[C@@]5(O[C@H](C[C@@](C)(O)C(=O)O)CC[C@H]5O)O4)O3)CC[C@H]2O[C@@H]1[C@@H](O)C[C@H](C)[C@H]1O[C@@]2(CCCCO2)CC[C@H]1C [okadaic acid, reference compound] |  |  |  |  |  |  |  |  |  |  |  | Unmasking of Tau-1 epitope of AD P-tau by PP-2A in the presence of the inhibitor ([7]; 1.0 μM okadaic acid, 5.0 U/ml PP-2A2, 30° C., 60 min): did not unmask Tau-1 epitope
6 | poly-L-lysine [Polylysine] | strongly activated |  |  |  | only slightly activated |  | slightly stimulated |  |  |  |  | 
